One block for each compound: values may come before it.
Tests used:
Type in all cases: physicochemical
[1] = Solubility in water of sodium salts of Compound I; settings: read-out: Aqueous Solubility of Sodium Salt Form of Compound I
Experimental: Sodium salts of Compound I described herein above were tested for solubility in water.

[2] = Hygroscopicity by dynamic vapor sorption
Experimental: Form A crystalline hydrate of compound I was analyzed by X-ray powder diffraction, thermogravimetric analysis, dynamic vapor sorption (to analyze hygroscopicity), and Karl Fischer titration.
The title compound was analyzed for hygroscopicity by dynamic vapor sorption.

[3] = Solid-state stability of crystalline form on storage (form checked by X-ray powder diffraction); settings: for crystalline form after extended storage: X-ray powder diffraction
Experimental: A sample of Form A crystalline hydrate of Compound I was subjected to stability analysis for 1 week at a temperature of 25° C. at 60% relative humidity.
Stability of Form B crystalline hydrate of compound I to extended storage was evaluated by storing samples of Form B crystalline hydrate of compound I for twelve months at either 5° C. or 25° C., and then subjecting samples of the stored material to X-ray powder diffraction analytical analysis.

solubility [1]: 3000 µg/mL
SMILES: Nc1nc(Cl)nc2c1ncn2[C@H]1[C@H](O)[C@H](O)[C@]2(COP(=O)(O)O)C[C@H]12 [Compound I, ((1R,2R,3S,4R,5S)-4-(6-amino-2-chloro-9H-purin-9-yl)-2,3-dihydroxybicyclo[3.1.0]hexan-1-yl)methyl dihydrogen phosphate]

increase in weight during the absorption step ([2]; absorption step, FIG. 3, in %): 5.2100
weight loss during the desorption step ([2]; desorption step, FIG. 3): 5.16%
SMILES: Nc1nc(Cl)nc2c1ncn2[C@H]1[C@H](O)[C@H](O)[C@]2(COP(=O)(O)O)C[C@H]12 [Form A crystalline hydrate of Compound I]
crystalline form at the end of the stability study ([3]; 1 week, 25° C., 60% relative humidity): converted to Form B crystalline hydrate of Compound I

SMILES: Nc1nc(Cl)nc2c1ncn2[C@H]1[C@H](O)[C@H](O)[C@]2(COP(=O)(O)O)C[C@H]12 [Form B crystalline hydrate of compound I]
relative stability of crystalline forms ([3]; comparison with Form A hydrate and crystalline sodium salt forms): more stable than Form A of crystalline hydrate of compound I and more stable than the crystalline sodium salt forms of compound I
crystalline form after extended storage ([3]; twelve months at 5° C.): remain as Form B crystalline hydrate of compound I
crystalline form after extended storage ([3]; twelve months at 25° C.): remain as Form B crystalline hydrate of compound I

Source: patent US20250368668A1, “CRYSTALLINE FORMS AND SALT FORMS OF A CARDIAC P2X RECEPTOR AGONIST, PHARMACEUTICAL COMPOSITIONS, AND THEIR USE IN TREATING MEDICAL DISORDERS” (Cornovus Pharmaceuticals, Inc., priority 2024, published 2025)
